In brackets after ≈: the same amount, converted by molar mass.
Test system: not listed separately
Experiment: AUC in mouse at 30 mg/kg, po administered with 40/10/50 volume of PEG400/EtOH/H2O solution
Type: ADME, organism-based
Design: dose 30 mg/kg, route oral
Details: plasma

Compared with CCCS(=O)(=O)Nc1ccc(F)c(C(=O)Nc2cnc3[nH]nc(OC)c3c2)c1F, CCCS(=O)(=O)Nc1ccc(F)c(C(=O)Nc2cnc3cc(OC)nn3c2)c1F is 1.7-fold higher in AUC: 426 µM·h for the first, 733 µM·h for the second.

Test system: not listed separately
Experiment: Clearance in mouse at […], iv
Type: ADME, organism-based
Design: dose 2.5 mg/kg, route intravenous
Details: in vivo

CCCS(=O)(=O)Nc1ccc(F)c(C(=O)Nc2cnc3[nH]nc(OC)c3c2)c1F and CCCS(=O)(=O)Nc1ccc(F)c(C(=O)Nc2cnc3cc(OC)nn3c2)c1F are within 1.5-fold of each other in clearance: 1.3 mL/min/kg for the first, 1 mL/min/kg for the second.

Test system: not listed separately
Experiment: Oral bioavailability in mouse at 30 mg/kg
Type: ADME, organism-based
Details: in vivo

With CCCS(=O)(=O)Nc1ccc(F)c(C(=O)Nc2cnc3cc(OC)nn3c2)c1F the bioavailability was 98%.

Test system: not listed separately
Experiment: Volume of distribution in mouse at […], iv and 30 mg/kg, po
Type: ADME, organism-based
Details: in vivo

CCCS(=O)(=O)Nc1ccc(F)c(C(=O)Nc2cnc3[nH]nc(OC)c3c2)c1F and CCCS(=O)(=O)Nc1ccc(F)c(C(=O)Nc2cnc3cc(OC)nn3c2)c1F are within 1.5-fold of each other in Vd: 0.11 L/kg for the first, 0.16 L/kg for the second.

Test system: not listed separately
Experiment: Aqueous solubility of the compound at pH 1.2
Type: physicochemical
Details: buffer

First: CCCS(=O)(=O)Nc1ccc(F)c(C(=O)Nc2cnc3[nH]nc(OC)c3c2)c1F
Second: CCCS(=O)(=O)Nc1ccc(F)c(C(=O)Nc2cnc3cc(OC)nn3c2)c1F
The solubility of the first is 6-fold lower: 3 µg/mL (≈ 7.05 µM) for the first, 18 µg/mL (≈ 42.3 µM) for the second.

Test system: not listed separately
Experiment: AUC in mouse at 30 mg/kg, po administered with 1% methylcellulose/0.5% Tween 80 in water
Type: ADME, organism-based
Design: dose 30 mg/kg, route oral
Details: in vivo

First: CCCS(=O)(=O)Nc1ccc(F)c(C(=O)Nc2cnc3[nH]nc(OC)c3c2)c1F
Second: CCCS(=O)(=O)Nc1ccc(F)c(C(=O)Nc2cnc3cc(OC)nn3c2)c1F
The AUC of the first is 8-fold lower: 105 µM·h for the first, 844 µM·h for the second.

Target: T1, Serine/threonine-protein kinase B-raf (Homo sapiens, UniProt P15056, V600E)
Experiment: not given
Details: not given

T1 sequence (P15056 2-766 V600E limits assumed): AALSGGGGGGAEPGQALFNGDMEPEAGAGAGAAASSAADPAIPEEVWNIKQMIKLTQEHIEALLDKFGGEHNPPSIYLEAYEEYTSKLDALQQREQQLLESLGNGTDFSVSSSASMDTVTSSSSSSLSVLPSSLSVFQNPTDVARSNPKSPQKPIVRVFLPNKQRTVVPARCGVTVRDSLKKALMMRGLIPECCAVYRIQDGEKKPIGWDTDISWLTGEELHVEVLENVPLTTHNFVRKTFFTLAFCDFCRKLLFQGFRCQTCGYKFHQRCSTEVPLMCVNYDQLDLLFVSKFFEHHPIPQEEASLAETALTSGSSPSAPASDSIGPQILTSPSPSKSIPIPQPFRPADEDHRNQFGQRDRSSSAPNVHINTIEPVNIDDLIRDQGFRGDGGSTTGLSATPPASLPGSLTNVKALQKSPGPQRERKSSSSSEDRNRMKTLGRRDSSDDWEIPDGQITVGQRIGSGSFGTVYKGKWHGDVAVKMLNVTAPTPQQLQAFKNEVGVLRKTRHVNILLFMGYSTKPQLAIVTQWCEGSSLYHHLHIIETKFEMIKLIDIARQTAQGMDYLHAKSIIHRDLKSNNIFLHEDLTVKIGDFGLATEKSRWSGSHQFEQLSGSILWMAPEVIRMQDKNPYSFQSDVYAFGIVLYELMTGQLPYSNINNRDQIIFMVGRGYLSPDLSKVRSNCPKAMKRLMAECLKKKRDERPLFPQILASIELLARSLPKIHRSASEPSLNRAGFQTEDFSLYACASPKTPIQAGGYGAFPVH

Going from CCCS(=O)(=O)Nc1ccc(F)c(C(=O)Nc2cnc3[nH]nc(OC)c3c2)c1F to CCCS(=O)(=O)Nc1ccc(F)c(C(=O)Nc2cnc3cc(OC)nn3c2)c1F, the IC50 rises from 5 nM to 43 nM (8.6-fold).

Going from CCCS(=O)(=O)Nc1ccc(F)c(C(=O)Nc2cnc3ccccc3c2)c1F to CCCS(=O)(=O)Nc1ccc(F)c(C(=O)Nc2cnc3occc3c2)c1F, the IC50 rises from 464 nM to over 10000 nM. The first is the more potent here.

First: CCCS(=O)(=O)Nc1ccc(F)c(C(=O)Nc2cnc3nccn3c2)c1F
Second: CCCS(=O)(=O)Nc1ccc(F)c(C(=O)Nc2cnc3ccnn3c2)c1F
The IC50 of the first is higher: over 10000 nM for the first, 247 nM for the second.

Going from CCCS(=O)(=O)Nc1ccc(F)c(C(=O)Nc2cnc3cc[nH]c3c2)c1F to CCCS(=O)(=O)Nc1ccc(F)c(C(=O)Nc2cnc3cc(C)nn3c2)c1F, the IC50 falls from 407 nM to 131 nM (3.1-fold). The second is the more potent here.

CCCS(=O)(=O)Nc1ccc(F)c(C(=O)Nc2cnc3cc(CC)nn3c2)c1F and CCCS(=O)(=O)Nc1ccc(F)c(C(=O)Nc2cnc3cc(OCC)nn3c2)c1F are within 1.5-fold of each other in IC50: 105 nM for the first, 83 nM for the second.

CCCS(=O)(=O)Nc1ccc(F)c(C(=O)Nc2cnc3cc(C4CC4)nn3c2)c1F and CCCS(=O)(=O)Nc1ccc(F)c(C(=O)Nc2cnc3cc(C4CCCC4)nn3c2)c1F are within 1.5-fold of each other in IC50: 124 nM for the first, 128 nM for the second.

CCCS(=O)(=O)Nc1ccc(F)c(C(=O)Nc2cnc3cc(C(F)(F)F)nn3c2)c1F and CCCS(=O)(=O)Nc1ccc(F)c(C(=O)Nc2cnc3cc(NC)nn3c2)c1F are within 1.5-fold of each other in IC50: 126 nM for the first, 129 nM for the second.

CCCS(=O)(=O)Nc1ccc(F)c(C(=O)Nc2cnc3cc(NC(C)C)nn3c2)c1F and CCCS(=O)(=O)Nc1ccc(F)c(C(=O)Nc2cnc3cc(OC(C)C)nn3c2)c1F are within 1.5-fold of each other in IC50: 190 nM for the first, 149 nM for the second.

Going from CCCS(=O)(=O)Nc1ccc(F)c(C(=O)Nc2cnc3cc(N4CCOCC4)nn3c2)c1F to CCCS(=O)(=O)Nc1ccc(F)c(C(=O)Nc2cnc3cc(-c4cnn(C)c4)nn3c2)c1F, the IC50 falls from 174 nM to 13 nM (13-fold).

First: CCCS(=O)(=O)Nc1ccc(F)c(C(=O)Nc2cnc3cc(OCCOC)nn3c2)c1F
Second: CCCS(=O)(=O)Nc1ccc(F)c(C(=O)Nc2cnc3cc(-c4cccnc4)nn3c2)c1F
The IC50 of the first is 5.2-fold higher: 67 nM for the first, 13 nM for the second.

First: CCCS(=O)(=O)Nc1ccc(F)c(C(=O)Nc2cnc3cc(-c4cccc(F)c4)nn3c2)c1F
Second: CCCS(=O)(=O)Nc1ccc(F)c(C(=O)Nc2cnc3cc(-c4ccc(F)cc4)nn3c2)c1F
The IC50 of the first is 1.7-fold higher: 19 nM for the first, 11 nM for the second.

Target: T1, Serine/threonine-protein kinase B-raf
Experiment: not given
Details: not given
Remark: another data set of the same source

CCCS(=O)(=O)Nc1ccc(F)c(C(=O)Nc2cnc3ccccc3c2)c1F and CCCS(=O)(=O)Nc1ccc(F)c(C(=O)Nc2cnc3cc[nH]c3c2)c1F are within 1.5-fold of each other in IC50: 1380 nM for the first, 1510 nM for the second.

First: CCCS(=O)(=O)Nc1ccc(F)c(C(=O)Nc2cnc3ccnn3c2)c1F
Second: CCCS(=O)(=O)Nc1ccc(F)c(C(=O)Nc2cnc3cc(C)nn3c2)c1F
The IC50 of the first is 2-fold higher: 488 nM for the first, 248 nM for the second. The second is the more potent here.

CCCS(=O)(=O)Nc1ccc(F)c(C(=O)Nc2cnc3cc(CC)nn3c2)c1F and CCCS(=O)(=O)Nc1ccc(F)c(C(=O)Nc2cnc3cc(OCC)nn3c2)c1F are within 1.5-fold of each other in IC50: 228 nM for the first, 205 nM for the second.

CCCS(=O)(=O)Nc1ccc(F)c(C(=O)Nc2cnc3cc(C4CC4)nn3c2)c1F and CCCS(=O)(=O)Nc1ccc(F)c(C(=O)Nc2cnc3cc(C4CCCC4)nn3c2)c1F are within 1.5-fold of each other in IC50: 299 nM for the first, 448 nM for the second.

CCCS(=O)(=O)Nc1ccc(F)c(C(=O)Nc2cnc3cc(C(F)(F)F)nn3c2)c1F and CCCS(=O)(=O)Nc1ccc(F)c(C(=O)Nc2cnc3cc(NC)nn3c2)c1F are within 1.5-fold of each other in IC50: 374 nM for the first, 382 nM for the second.

CCCS(=O)(=O)Nc1ccc(F)c(C(=O)Nc2cnc3cc(NC(C)C)nn3c2)c1F and CCCS(=O)(=O)Nc1ccc(F)c(C(=O)Nc2cnc3cc(OC(C)C)nn3c2)c1F are within 1.5-fold of each other in IC50: 395 nM for the first, 449 nM for the second.

Going from CCCS(=O)(=O)Nc1ccc(F)c(C(=O)Nc2cnc3cc(N4CCCC4)nn3c2)c1F to CCCS(=O)(=O)Nc1ccc(F)c(C(=O)Nc2cnc3cc(N4CCOCC4)nn3c2)c1F, the IC50 falls from 664 nM to 315 nM (2.1-fold).

Compared with CCCS(=O)(=O)Nc1ccc(F)c(C(=O)Nc2cnc3cc(OC)nn3c2)c1F, CCCS(=O)(=O)Nc1ccc(F)c(C(=O)Nc2cnc3cc(OCCOC)nn3c2)c1F is 1.6-fold higher in IC50: 68 nM for the first, 110 nM for the second.

CCCS(=O)(=O)Nc1ccc(F)c(C(=O)Nc2cnc3cc(-c4cccc(F)c4)nn3c2)c1F and CCCS(=O)(=O)Nc1ccc(F)c(C(=O)Nc2cnc3cc(-c4ccc(F)cc4)nn3c2)c1F are within 1.5-fold of each other in IC50: 60 nM for the first, 54 nM for the second.

Going from CCCS(=O)(=O)Nc1ccc(F)c(C(=O)Nc2cnc3cc(-c4cccnc4)nn3c2)c1F to CCCS(=O)(=O)Nc1ccc(F)c(C(=O)Nc2cnc3cc(-c4cnn(C)c4)nn3c2)c1F, the IC50 rises from 27 nM to 48 nM (1.8-fold). The first is the more potent here.

Test system: not listed separately
Experiment: in vitro
Details: human, Caco-2
Description: Permeability across human Caco2 cells

Work on CCCS(=O)(=O)Nc1ccc(F)c(C(=O)Nc2cnc3cc(OC)nn3c2)c1F yielded a Papp of 2 ×10⁻⁶ cm/s.

Test system: not listed separately
Experiment: physchem
Details: buffer, pH 6.5
Description: Aqueous solubility of the compound at pH 6.5

With CCCS(=O)(=O)Nc1ccc(F)c(C(=O)Nc2cnc3cc(OC)nn3c2)c1F the solubility was 21 µg/mL (≈ 49.4 µM).

Test system: not listed separately
Experiment: physchem
Details: buffer, pH 7.4
Description: Aqueous solubility of the compound at pH 7.4

Compound CCCS(=O)(=O)Nc1ccc(F)c(C(=O)Nc2cnc3cc(OC)nn3c2)c1F has a solubility of 32 µg/mL (≈ 75.2 µM).

From ChEMBL document CHEMBL2029243, “Potent and selective pyrazolo[1,5-a]pyrimidine based inhibitors of B-Raf(V600E) kinase with favorable physicochemical and pharmacokinetic properties” (Bioorg Med Chem Lett, 2012)
